Experimental data published in ChEMBL document CHEMBL1152149 (Bioorg Med Chem Lett, 2008).
Structures can show the parent of a compound that is named as a salt. Activity calls are given as the source filed them. The calls are words filed in the database; no cut-off is given here.

Tested on: H2N2 subtype
Format: functional, organism-based, Influenza A virus (A/Japan/305/1957(H2N2))
Conditions: Influenza A virus, MDCK

SMILES	EC50 [µM]
NC1C2CC3CC(C2)CC1C3 (centres undefined)	2.8
CCCC1(O)C2CC3CC(C2)CC1C3 (centres undefined)	< 2.1
CCC1(N)C2CC3CC(C2)CC1C3 (centres undefined)	< 1.9
CC1(N)C2CC3CC(C2)CC1C3 (centres undefined)	3.5
C1CCC2(NC1)C1CC3CC(C1)CC2C3 (centres undefined)	1
CC1(O)C2CC3CC(C2)CC1C3 (centres undefined)	3
C1CNC2(C1)C1CC3CC(C1)CC2C3 (centres undefined)	1.8
NC12CC3CC(CC(C3)C1)C2 [AMANTADINE HYDROCHLORIDE]	1.1
CCCC1(N)C2CC3CC(C2)CC1C3 (centres undefined)	< 1.7

Target: Glutamate NMDA receptor
Test: Inhibition of NMDA receptor in rat cerebellar granule neurons assessed as glutamate-induced intracellular calcium increase
Format: cell-based
Conditions: not given

SMILES	IC50 [µM]
NC1C2CC3CC(C2)CC1C3 (centres undefined)	> 350
CCCC1(O)C2CC3CC(C2)CC1C3 (centres undefined)	> 350
CC1(N)C2CC3CC(C2)CC1C3 (centres undefined)	306
C1CCC2(NC1)C1CC3CC(C1)CC2C3 (centres undefined)	239
CC1(O)C2CC3CC(C2)CC1C3 (centres undefined)	> 350
C1CNC2(C1)C1CC3CC(C1)CC2C3 (centres undefined)	314
CCCC1(N)C2CC3CC(C2)CC1C3 (centres undefined)	258

Tested on: not listed separately
Test: Cytotoxicity against MDCK cells assessed as detectable alteration of normal cell morphology
Format: cell-based, Canis lupus familiaris
Conditions: dog, read-out: Activity

SMILES	MCC [mM]
NC1C2CC3CC(C2)CC1C3 (centres undefined)	> 1.33
CCCC1(O)C2CC3CC(C2)CC1C3 (centres undefined)	> 1.29
CCC1(N)C2CC3CC(C2)CC1C3 (centres undefined)	> 1.16
CC1(N)C2CC3CC(C2)CC1C3 (centres undefined)	> 1.24
C1CCC2(NC1)C1CC3CC(C1)CC2C3 (centres undefined)	> 1.03
CC1(O)C2CC3CC(C2)CC1C3 (centres undefined)	> 1.51
C1CNC2(C1)C1CC3CC(C1)CC2C3 (centres undefined)	> 1.1
NC12CC3CC(CC(C3)C1)C2 [AMANTADINE HYDROCHLORIDE]	> 1.33
CCCC1(N)C2CC3CC(C2)CC1C3 (centres undefined)	> 1.09

Tested on: Influenza B virus
Format: functional, organism-based
Conditions: B/Hong Kong/05/1972, MDCK

SMILES	Activity	EC50 [µM]
NC1C2CC3CC(C2)CC1C3 (centres undefined)	inactive	
CCCC1(O)C2CC3CC(C2)CC1C3 (centres undefined)	inactive	
CCC1(N)C2CC3CC(C2)CC1C3 (centres undefined)	inactive	
CC1(N)C2CC3CC(C2)CC1C3 (centres undefined)	inactive	
C1CCC2(NC1)C1CC3CC(C1)CC2C3 (centres undefined)		241
CC1(O)C2CC3CC(C2)CC1C3 (centres undefined)	inactive	
C1CNC2(C1)C1CC3CC(C1)CC2C3 (centres undefined)	inactive	
NC12CC3CC(CC(C3)C1)C2 [AMANTADINE HYDROCHLORIDE]	inactive	
CCCC1(N)C2CC3CC(C2)CC1C3 (centres undefined)	inactive	

Target: Glutamate NMDA receptor
Test: Inhibition of NMDA receptor in rat cerebellar granule neurons assessed as NMDA-induced intracellular calcium increase
Format: cell-based
Conditions: not given

SMILES	IC50 [µM]
NC1C2CC3CC(C2)CC1C3 (centres undefined)	219
CCCC1(O)C2CC3CC(C2)CC1C3 (centres undefined)	> 350
CC1(N)C2CC3CC(C2)CC1C3 (centres undefined)	64.4
C1CCC2(NC1)C1CC3CC(C1)CC2C3 (centres undefined)	19
CC1(O)C2CC3CC(C2)CC1C3 (centres undefined)	> 350
C1CNC2(C1)C1CC3CC(C1)CC2C3 (centres undefined)	50.6
CCCC1(N)C2CC3CC(C2)CC1C3 (centres undefined)	61.3

Tested on: not listed separately
Test: Binding affinity to influenza A virus A/chicken/Germany/27 H7N7 weybridge strain M2 ion channel expressed in Escherichia coli
Conditions: not given

SMILES	Kd [µM]
NC1C2CC3CC(C2)CC1C3 (centres undefined)	2.36
CC1(F)C2CC3CC(C2)CC1C3 (centres undefined)	> 26
CCC1(N)C2CC3CC(C2)CC1C3 (centres undefined)	6.7
CC1(N)C2CC3CC(C2)CC1C3 (centres undefined)	3.6
C1CCC2(NC1)C1CC3CC(C1)CC2C3 (centres undefined)	0.39
C1CNC2(C1)C1CC3CC(C1)CC2C3 (centres undefined)	1.16
NC12CC3CC(CC(C3)C1)C2 [AMANTADINE HYDROCHLORIDE]	0.32
CCCC1(N)C2CC3CC(C2)CC1C3 (centres undefined)	8.71
